Assay results reported in patent publication US20100151572A1, “ANTI-TUMORAL COMPOSITIONS METHODS” (priority 2005, published 2010).

Key:
[1] = F-Ade plasma levels after prodrug injection in tumor-bearing mice; assay type: in vivo
Description: Measurements of generation and clearance of circulating F-Ade are made by HPLC for example. Radiolabeled prodrug is obtained from Moravek Biochemicals and injected into mice by the same route and dosage used in efficacy experiments for comparison. Plasma samples are removed at increasing time intervals after injection of prodrug and analyzed by reverse-phase HPLC for parent compound and base. Identification of prodrug and F-Ade is by HPLC as described above.
When tumors are approximately 200 mg the mice are injected intraperitoneally with 20 mg/kg 3H-F-dAdo. […] Four mice from each group are sacrificed 5, 15, 30, and 60 minutes after injection of F-dAdo, and plasma samples were obtained. The amount of F-Ade is determined in each plasma sample using reverse phase HPLC, as described.
A similar experiment is conducted with F-araAMP. […] The limit of detection in these experiments with fludarabine is approximately 1 micromolar.

[2] = Maximally tolerated dose of prodrug in mice; assay type: in vivo; conditions: for MTD in mice bearing tumors that express E. coli PNP: versus mice without PNP tumors
Description: For experiments shown in FIG. 7, sixteen mice are implanted subcutaneously with D54 parental, no PNP expression cells, D54/PNP MuLv, approximately 250 PNP units), or D54/lentiPNP, […] PNP units tumor cells as described for efficacy evaluations. When tumors are approximately 200 mg the mice are injected intraperitoneally with 20 mg/kg 3H-F-dAdo. This dose of F-dAdo is the maximally tolerated dose of F-dAdo when given 5 times daily for 3 consecutive days. Four mice from each group are sacrificed 5, 15, 30, and 60 minutes after injection of F-dAdo, and plasma samples were obtained. The amount of F-Ade is determined in each plasma sample using reverse phase HPLC, as described.
There is no difference in the F-Ade plasma levels in mice bearing tumors with different levels of E. coli PNP activity, which is consistent with the fact that the MTD of F-dAdo is not reduced in mice bearing tumors that express E. coli PNP.
A similar experiment is conducted with F-araAMP. […] The limit of detection in these experiments with fludarabine is approximately 1 micromolar. As with F-dAdo, the MTD of F-araAMP is not reduced in mice bearing tumors that express E. coli PNP (either from lentivirus or MuLv), or when given in combination with vectors that express E. coli PNP.

[3] = Systemic dose response tolerability in mice, human dose by Freireich formula; assay type: in vivo
Text: The formula of Freireich et al., Cancer Chemother. Rep., 50:219 244, (1966) can be used to determine the maximum tolerated dose of substrate for a human subject. […] This amount or slightly less should be tolerated in humans with minimal side effects. Furthermore, it is understood that modes of administration that permit the substrate to remain localized at or near the site of the tumor will be effective at lower doses than systemically administered substrates.

[4] = tested on: D54 tumors (no PNP expression); test: Control D54 tumors without PNP expression, drug treatment in vivo
[5] = cited from earlier work
[6] = tested on: D54 glioma tumors (MuLv-PNP transduced); test: D54 tumors expressing E. coli PNP from MuLV, prodrug treatment in vivo
Description: For example, in one in vivo tumor model, tumors are established in animals by subcutaneous implantation of about 10^7 cells into the axillary region of 6-10 mice. Athymic (or scid) mice are used for models of certain human tumors including cells such as D54, HCT-15, and SR475 head/neck. Syngeneic models are also used. For instance, mouse tumors are established using Colon 26 and G26 glioma cells.
The resulting solid tumors are measured twice weekly in two dimensions and the mass calculated using the formula for a prolate ellipsoid, [length (mm)×width^2 (mm)]/2=mg, assuming unit density. The data will permit the determination of a tumor volume doubling time, % “no takes”, and % spontaneous regressions.
PNP expression in MuLv was driven by an SV40 promoter. Mice are given non-absorbable antibiotics in their drinking water prior to treatment with high doses of MeP-dR (e.g. 168 mg/kg/d×3d) to minimize intestinal cleavage of the compound (Bharara, S., et al., 2005, Human Gene Therapy 16:339-347.). Antibiotics are not co:administered for lower doses of MeP-dR, or with less avid substrates such as fludarabine.

[7] = tested on: D54 glioma tumors (lentivirus PNP); test: D54 tumors expressing E. coli PNP from lentivirus, prodrug treatment in vivo; set-up: species or system human
Text: Syngeneic models are also used.
D54 glioma tumors are established from a stable cell line expressing E. coli PNP by a strong, CMV-based promoter in a lentiviral vector. FIG. 10 illustrates results. Open Circles: Tumors established from 10% PNP expressing/90% non-expressing tumor cells; PNP activity 9600±1300 units on day 14. Open Triangles: 5% expressing, 95% non-expressing tumor cells; PNP activity 5500±1700 units. Open Squares: Tumors established from 2.5% expressing, 97.5% non-expressing (PNP activity 3600±530 units). Closed symbols depict growth of corresponding (10%, 5%, 2.5%) PNP tumors treated with vehicle (saline control). At least six animals are studied per group. Identically treated animals from each study arm are sacrificed just prior to initiation of MeP-dR therapy (day 14) to measure intratumoral PNP acitivity. […] These experiments test the influence of substantially higher PNP activities on bystander killing in vivo. PNP activity in 300 mg tumors comprised of 100% lentivirus transduced cells is found to be approximately 126,000 PNP units (one unit=1 nmole MeP-dR converted per mg tumor tissue per hour). When the level of E. coli PNP is studied using lentiviral expression, improvements in bystander killing are observed as shown in FIG. 10.
FIG. 12 depicts a study in which 100% of cells express E. coli PNP using lentivirus. Complete regression and cures of tumors (12 of 12) are obtained with F-araAMP following a 3 day treatment schedule. […] Adjusting the schedule of F-araAMP may also improve bystander killing in vivo (FIG. 16).
Tumors in which 100% of cells expressed E. coli PNP are treated with a maximally tolerated dose (MTD, 100 mg/kg schedule, open circles) or half the MTD (closed triangles). Six animals are included per treatment group. […] PNP activity in these tumors is 126,000±16,000 units on the day of drug therapy.
Tumors are established from an inoculum in which 10% of cells expressed E. coli PNP. PNP expression on the day of drug treatment is 14,200±681 PNP units. Anti-tumor efficacy is greater at 100 mg/kg F-araAMP (open circles) than at 50 mg/kg (closed triangles) or 25 mg/kg (open triangles) given over a standard 3 day schedule (q2h×5, q1d×3 days).
D54 glioma tumors are established with decreasing proportions of PNP expressing cells (and increasing non-expressing (parental) cells). (open symbols: F-araAMP therapy; closed symbols: no prodrug therapy; circles: 2.5%; triangles 5%, and squares 10% PNP transduced cells). F-araAMP was 100 mg/kg q2h×5, q1d×3.
Tumors comprised of 5% PNP expressing cells and 2 different fludarabine schedules are shown.

[8] = tested on: D54 human glioma tumors; test: Ad-PNP injection of D54 tumors followed by F-araAMP; assay type: in vivo
Description: D54 human glioma tumors (appx. 250 mg) are injected with an Ad-PNP (2×10^9 PFU, open circles) or saline (closed circles). PNP activity in tumor extracts taken two days after vector administration is approximately 5000 PNP units.

[9] = Safety analysis in flank and CNS tumor models with PNP/F-araAMP; assay type: in vivo
[10] = tested on: human glioma tumors; test: HSV-PNP intratumoral inoculation of human glioma tumors in mice; assay type: in vivo; conditions: intratumoral MeP-dR 168 mg/kg daily x 3 days with HSV-PNP
Description: Using HSV-PNP, a composition including 17 million pfu of the virus in 50 microliters is administered on day 16 following establishment of human glioma tumors in mice. HSV-PNP by itself slows growth of tumors following intratumoral inoculation, approximately 20 days delay to one tumor doubling.

[11] = tested on: HeLa cells; test: Ad-PNP mediated cell killing in vitro, crystal violet staining; assay type: cell-based, human; conditions: MeP-dR 40 micrograms/milliliter, adenoviral MOI 0.1-100, stained 6 days post infection
Description: Confluent HeLa cells are infected with Ad-PNP at various MOIs. MeP-dR is added at 40 micrograms/milliliter in one set of cells at 24 hours post infection. At 6 days post infection, all cultures are stained with Crystal Violet to visualize living cells.
FIG. 17 depicts results using an Ela deleted adenoviral vector encoding E. coli PNP as described herein.

[12] = tested on: Nc1nc(F)nc2c1ncn2[C@@H]1O[C@H](CO)[C@@H](O)[C@@H]1O; test: purified protein, by the assay type; conditions: other: substrate of E. coli PNP
[13] = tested on: Cc1ncnc2c1ncn2[C@H]1C[C@H](O)[C@@H](CO)O1; test: purified protein, by the assay type; assay type: biochemical; conditions: other: substrate of E. coli PNP
Text: (§1) Table 1 describes the kinetic constants underlying these enzymatic reactions with E. coli PNP.

[14] = tested on: Nc1nc(F)nc2c1ncn2[C@H]1C[C@H](O)[C@@H](CO)O1; test: purified protein, by the assay type; assay type: biochemical; conditions: other: substrate of E. coli PNP
Text: as §1

## Nc1nc(F)nc2c1ncn2[C@H]1C[C@H](O)[C@@H](CO)O1 [2-F-dAdo, 2-fluoro-2′-deoxyadenosine]
[1]; 20 mg/kg 3H-F-dAdo ip, 5, 15, 30, 60 min, D54 parental, D54/PNP MuLv, D54/lentiPNP tumors
  F-Ade plasma levels in mice bearing tumors with different levels of E. coli PNP activity: no difference
[2]; mouse, in vivo, 3 days
  maximally tolerated dose: 20 mg/kg
[2]
  MTD in mice bearing tumors that express E. coli PNP: not reduced

## Cc1ncnc2c1ncn2[C@@H]1O[C@H]([C@H](C)O)[C@@H](O)[C@H]1O [5′-methyl(talo)MeP-R]
[3]; 200 mg/kg times 3, from mouse data
  human dosage determined by formula of Freireich: 600 mg/m^2
[3]; mice, systemic, 200 mg per kg per day for 3 days (3 doses total)
  tolerability: well tolerated

## O=NN(CCCl)C(=O)NCCCl [BCNU]
[4]; at maximally tolerated doses
  activity against D54 tumors: minimal activity

## Nc1nc(F)nc2c1ncn2[C@@H]1O[C@H](CO)[C@@H](O)[C@@H]1O [F-araA, 9-(beta-D-arabinofuranosyl)-2-fluoroadenine]
[5]; in vivo
  circulating half life: 50 min
  peak levels compared with MeP-dR: significantly higher

## Nc1nc(F)nc2c1ncn2[C@@H]1O[C@H](COP(=O)(O)O)[C@@H](O)[C@@H]1O [F-araAMP]
[1]; 100 mg/kg F-araAMP, limit of detection approximately 1 micromolar
  F-Ade in plasma of mice bearing tumors expressing E. coli PNP: no F-Ade is detected
[2]; given 5 times daily for 3 consecutive days, mice
  maximally tolerated dose: 100 mg/kg
[2]
  MTD in mice bearing tumors that express E. coli PNP: not reduced
[6]; 100% of cells expressed E. coli PNP (MuLv), tumors subsequently escape
  duration of regressions: ~30 days
[6]; F-araAMP following E. coli PNP transduction with MuLv
  bystander killing in vivo: little or no bystander killing
[7]; 2.5%, 5%, 10% PNP transduced cells, 100 mg/kg q2h x5, q1d x3, p<0.001
  anti-tumor effect vs non-treatment groups: significantly different from non-treatment groups
[7]; 5% PNP expressing cells, 2 different schedules, p<0.001
  anti-tumor effect vs non-treatment group: significantly different from non-treatment group
[7]; 10% PNP cells, 100, 50 or 25 mg/kg q2h x5, q1d x3 days, p<0.001, efficacy greater at 100 mg/kg
  anti-tumor effect vs non-treatment group: significantly different from non-treatment group
[7]; 100% PNP tumors, F-araAMP MTD or half MTD
  tolerability during tumor regressions: without excessive weight loss or other undesired sequelae
[7]; 100% of cells express PNP, F-araAMP 3 day schedule, MTD (100 mg/kg) or half the MTD, six animals per group
  complete regression and cures of tumors: 12 of 12 and cured of their tumors
[7]; as few as 2.5% of tumor cells express PNP
  anti-tumor effects at low proportion of PNP cells: Anti-tumor effects are observed
[8]; Ad-PNP 2x10^9 PFU, tumors appx. 250 mg, p<0.002 vs virus alone or no treatment
  anti-tumor effect together with Ad-PNP: slowing of tumor growth
[8]; Ad-PNP together with F-araAMP
  toxicity in the study: No limiting weight loss, animal deaths or other toxicities
[9]
  animal longevity: improved animal longevity
  toxicity as judged by weight loss or lethality: have not indicated significant toxicity
[5]; 4 hours after injection of F-araAMP
  prodrug in plasma: very little prodrug in plasma
[4]; no PNP expression, GFP control transgene, standard 3 day schedule
  effect on control D54 tumors: no effect

## Cc1ncnc2c1ncn2[C@H]1C[C@H](O)[C@@H](CO)O1 [MeP-dR, 9-(2-deoxy-beta-D-ribofuranosyl]-6-methylpurine]
[10]
  anti-tumor effect with HSV-PNP: improves tumor regressions and arrest of tumor growth
[6]; 20% PNP-expressing / 80% parental cells, MeP-dR, p<0.002
  anti-tumor effect vs non-treatment groups: significantly different from non-treatment groups
[6]; MeP-dR, 20% PNP (MuLv) and parental tumors
  tolerability of treatments: well tolerated without limiting weight loss or lethality
[7]; MeP-dR, 10%, 5%, 2.5% PNP expressing cells, p<0.05 (2.5%), p<0.005 (5% and 10%)
  antitumor effects vs non-treatment groups: significantly different from non-treatment groups
[11]
  cell killing in combination with Ad-PNP: sufficient to eliminate populations of cancer cells
[5]; in vivo
  circulating half life: ~20 min
  half life in serum: 15 to 20 min

## Ad-PNP
[8]; two days after vector administration, 2x10^9 PFU
  PNP activity in tumor extracts: approximately 5000 PNP units

## E. coli PNP (Escherichia coli K-12)
[12]
  Km: 960 µM
  Vmax: 0.0983 µmol/min/mg
[13]
  Km: 125 µM
  Vmax: 24.3 µmol/min/mg
[14]
  Km: 22 µM
  Vmax: 7.08 µmol/min/mg
